# Earlier results, collected in patent US20130296430A1, “COMPOSITIONS AND METHODS FOR TREATING AUTISM AND AUTISM SPECTRUM DISORDER” (priority 2012, published 2013).
# Settings: doses less than NAC; effects counter to those reported for NAC; Samstrand et al 1999; cited from earlier work
compound,measurement,value
CC(=O)N[C@@H](CSSC[C@H](NC(C)=O)C(=O)O)C(=O)O [oxidized form of NAC],bioactive dose relative to NAC,10-100 fold
